We go through 2 compounds from US7632782B2, “Synergistically acting herbicidal mixtures” (BASF Aktiengesellschaft, priority 2002, dated 2009).

Common to all, as to type: in vivo
For assay [1], the system named is Avena fatua. Briefly: Herbicidal action, post-emergence treatment, greenhouse. An excerpt: (§1) The mixtures according to the invention were applied pre- and/or post-emergence (foliar treatment). The herbicidal compounds of component B) and, if desired, of component C) as well as the safener D) were applied in the formulation in which they are present as commercially available product (s).
(§2) The herbicidally active compounds of components A), B) and, if desired, C), and, if desired D), were applied in succession or jointly, in the latter case in some cases as a tank mix and in some cases as a readymix, in the form of emulsions, aqueous solutions or suspensions, the vehicle being water (300-400 l/ha). In the case of the field trials, application was effected with the aid of a mobile plot sprayer.
(§3) The test period extended over 3 to 8 weeks, and the stands were also observed at later points in time.
(§4) Damage by the herbicidal compositions was evaluated with reference to a scale of 0% to 100% in comparison with untreated control plots. 0 means no damage and 100 means complete destruction of the plants.
(§5) In these examples, the value […] at which only an additive effect of the individual active ingredients is to be expected was calculated by the method of S. R. Colby (Calculating synergistic and antagonistic responses of herbicide combinations, Weeds 15, 20 pp (1967)).
(§6) [formula] where • X=Percentage of the herbicidal action of component A) at an application rate of a; • Y=Percentage of the herbicidal action of component B), and, if desired, C), and, if desired, D) at an application rate of b, and, if desired, c, and, if desired, d; • E=expected herbicidal action of component A)+B), and, if desired C), and; if desired, D) at rates of application a+b, and, if desired, c and, if desired, d (in %).
(§7) If the value observed exceeds the value E calculated in accordance with Colby's formula, then synergism is present.

For assay [2], the system named is Abutilon theophrasti. Described as above.
Text: as §1, §2, §3, §4, §5, §6, §7

Assay [3] relates to Pharbitis purpurea. The assay is described as above.
Text: as §1, §2, §3, §4, §5, §6, §7

Assay [4] has as its system Bidens pilosa. Described as above. Conditions: Table 12, application rate 7.81 g/ha ai.
Text: as §1, §2, §3, §4, §5, §6, §7

The subject of assay [5] is Amaranthus retroflexus. The description is as above.
Text: as §1, §2, §3, §4, §5, §6, §7

Assay [6] concerns Galium aparine. The assay is described as above. The following applies: Table 11, application rate 7.81 g/ha ai.
Text: as §1, §2, §3, §4, §5, §6, §7

The subject of assay [7] is Bidens pilosa. Kind of assay: Herbicidal action, post-emergence treatment, field.
Text: as §1, §2, §3, §4, §5, §6, §7

Assay [8] has as its system Pharbitis purpurea. Briefly: Herbicidal action, post-emergence treatment, field. Conditions: Table 9, application rate 3.91 g/ha ai.
Text: as §1, §2, §3, §4, §5, §6, §7

For assay [9], the system named is Brachiaria plantaginea. Kind of assay: Herbicidal action, post-emergence treatment, field. The following applies: Table 15, application rate 3.91 g/ha ai.
Text: as §1, §2, §3, §4, §5, §6, §7

The subject of assay [10] is Polygonum persicaria. Kind of assay: Herbicidal action, post-emergence treatment, field. The following applies: Table 10, application rate 1.95 g/ha ai.
Text: as §1, §2, §3, §4, §5, §6, §7

Assay [11] relates to Commelina benghalensis. Briefly: Herbicidal action, post-emergence treatment, field. Conditions: Table 5, application rate 7.81 g/ha ai.
Text: as §1, §2, §3, §4, §5, §6, §7

The mark [12] stands for this setting: Table 3, application rate 1.95 g/ha ai.
The mark [13] stands for this setting: Table 4, application rate 0.98 g/ha ai.
Where [14] appears, read: Table 3, application rate 3.91 g/ha ai.
Setting [15] is: Table 4, application rate 1.95 g/ha ai.
Where [16] appears, read: Table 6, application rate 3.91 g/ha ai.
[17] abbreviates: Table 8, application rate 1.95 g/ha ai.
Where [18] appears, read: Table 14, application rate 3.91 g/ha ai.

`COc1cc(OC)nc(NC(=O)NS(=O)(=O)c2cc(NC=O)ccc2C(=O)N(C)C)n1` [Compound II, foramsulfuron, reference compound]: the results for the “Avena fatua Damage [%]” value in [1] (setting [12]) and in assay [1] (setting [13]) were 50% and 30%, respectively. In addition, the “Abutilon theophrasti Damage [%]” value in assay [2] (setting [13]) came to 30%. For the same compound, in [3] (setting [12]), the “Pharbitis purpurea Damage [%]” value is recorded as 80%.
As for `Cc1c(C(=O)c2cnn(C)c2O)ccc(S(C)(=O)=O)c1C1=NOCC1` [Ia.29, 4-[2-methyl-3-(4,5-dihydroisoxazol-3-yl)-4-methylsulfonyl-benzoyl]-1-methyl-5-hydroxy-1H-pyrazole], the “Bidens pilosa Damage [%]” value worked out at 60% in [4]; 30% in [7] (Table 7, application rate 3.91 g/ha ai); 60% in [7] (Table 13, application rate 7.81 g/ha ai). In addition, the “Avena fatua Damage [%]” value amounted to 50% in assay [1] (setting [14]) and 25% in [1] (setting [15]). In addition, the “Amaranthus retroflexus Damage [%]” value in [5] (setting [16]) is recorded as 60%; in assay [5] (setting [17]) it was 40%; in assay [5] (setting [18]) it was 60%. For the same compound, the “Abutilon theophrasti Damage [%]” value in [2] (setting [15]) is 40%; in assay [2] (setting [16]), 80%; in [2] (setting [17]), 40%; in assay [2] (Table 11, application rate 7.81 g/ha ai) it was 95%; in [2] (Table 12, application rate 7.81 g/ha ai), 95%; in [2] (setting [18]), 80%. Moreover, the “Pharbitis purpurea Damage [%]” value in assay [3] (setting [14]) and in assay [8] was 70% throughout. Also, the “Galium aparine Damage [%]” value in [6] is 30%. Moreover, the “Brachiaria plantaginea Damage [%]” value in [9] is reported as 80%. In addition, the “Polygonum persicaria Damage [%]” value in assay [10] was 95%. Further, in assay [11], the “Commelina benghalensis Damage [%]” value came to 40%.
